Measured values from paper PMC5924986, “Cellular and Biophysical Pipeline for the Screening of Peroxisome Proliferator-Activated Receptor Beta/Delta Agonists: Avoiding False Positives” (PPAR Research, 2018).
Values joined by “and” are separate entries in the source; they are usually repeats but may differ in a detail not shown here. Equal values may be shown once. “Also recorded” adds a separate entry of the source. Read-outs that look alike come from different tables or passages of the source. One block for each compound: values may come before it.

Columns and labels:
[1] = target: T1, hPPARß/δ LBD (Homo sapiens, UniProt Q03181); test: Qualitative thermal shift assay (TSA); assay type: binding; settings: commercial agonists at 30 μM, 10 μM PPARß/δ, vs apo-PPARß/δ
T1 construct: cDNA (amino acids 171–441) inserted into pET28a vector; His-tag; made in house; host or cells: Escherichia coli BL21(DE3)
T1 sequence (Q03181 171-441): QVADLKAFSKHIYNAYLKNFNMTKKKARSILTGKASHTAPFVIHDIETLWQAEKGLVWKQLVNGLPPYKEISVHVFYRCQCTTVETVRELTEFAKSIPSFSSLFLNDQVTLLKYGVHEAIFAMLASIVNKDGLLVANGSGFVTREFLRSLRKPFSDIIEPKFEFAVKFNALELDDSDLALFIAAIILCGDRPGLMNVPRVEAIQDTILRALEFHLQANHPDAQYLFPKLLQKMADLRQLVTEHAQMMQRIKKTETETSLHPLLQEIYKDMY

[2] = target: T1, hPPARß/δ LBD; test: ANS fluorescence quenching; assay type: binding; settings: 2 μM hPPARß/δ LBD, 20 μM ANS; for ANS fluorescence quenching / ANS probe displacement (qualitative): compounds 0.3–50 μM, extracts 0.005–1 mg/mL
[3] = tested on: PPARß/δ; settings: read-out: EC50 found in the literature, cited from earlier work
[4] = target: T2, PPARß/δ (Homo sapiens, UniProt Q03181); test: PPARß/δ transactivation assay (Gal4-DBD/PPARß/δ-LBD dual luciferase reporter-gene assay in 293T cells); assay type: cell-based; settings: dose-response curves 10^−11–10^−6 M
T2 construct: expressed in transfected cells; host or cells: 293T cells (ATCC CRL-3216), transient transfection
T2 sequence (Q03181 211-439 limits assumed): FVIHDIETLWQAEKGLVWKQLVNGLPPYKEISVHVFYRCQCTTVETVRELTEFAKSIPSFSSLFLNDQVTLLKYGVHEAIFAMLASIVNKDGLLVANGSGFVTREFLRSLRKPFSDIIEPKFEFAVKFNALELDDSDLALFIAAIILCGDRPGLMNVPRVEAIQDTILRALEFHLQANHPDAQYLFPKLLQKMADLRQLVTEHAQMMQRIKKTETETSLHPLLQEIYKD

[5] = tested on: 293T cells; test: Cytotoxicity: MTT assay and Renilla reporter expression; assay type: cell-based; settings: 1 μM, 1% DMSO as vehicle, compared with 0.1% or 1% DMSO
Procedure: We performed vector normalization with the raw luminescence data to control for differences in transfection efficiency between samples. For vector normalization we calculate luciferase signal/Renilla signal. The assay performance was assessed by plate statistics (signal-to-background ratio, Z′-factor, coefficient of variation) and apparent cytotoxicity was a measure of Renilla luciferase parameters. For Z′-factor calculation, we consider, after vector normalization, the positive controls (GW0742) as signal, and negative controls (DMSO) as background. For cytotoxicity, wells with expression of Renilla reporter five standard deviations (5 × SD) below the mean value of the controls treatment were considered cytotoxic and consequently were disregarded. We considered as hit candidates compounds/extracts with luminescence firefly/Renilla ratio 7 times above the standard deviation of negative controls (DMSO) from the same plate. […]
Additionally, we related the 3-(4,5-dimethyl-2-thia-zoyl)-2,5-diphenyl-2H-tetrazolium bromide (MTT) results with Renilla reporter expression to assess when a test compound/extract might be toxic to the cells, only based on Renilla reporter expression. […] The absorbance was measured at 562 nm using an EnSpire® Multimode Plate Reader (Perkin Elmer). […] Data were analyzed by 2-way ANOVA followed by Sidak's multiple comparison test in GraphPad Prism software. […]

Tm variation [1]: 7.3 ± 0.7 °C and 7.3 °C
ANS fluorescence quenching / ANS probe displacement (qualitative) [2]: showed quenching in the ANS fluorescence
Kd ([2]; read-out: apparent dissociation constant (Kdapp)): 1.09 ± 0.08 µM
EC50 [4]: 0.0264 µM
SMILES: CCCc1c(OCCCOc2ccc(OCC(=O)O)cc2)ccc(C(C)=O)c1O [L-165,041]
EC50 ([3]; ref [25]): 0.125 µM

SMILES: Cc1cc(SCc2sc(-c3ccc(C(F)(F)F)cc3)nc2C)ccc1OCC(=O)O [GW501516]
EC50 ([3]; ref [7]): 0.0018 µM

SMILES: Cc1cc(SCc2sc(-c3ccc(C(F)(F)F)c(F)c3)nc2C)ccc1OCC(=O)O [GW0742]
cytotoxicity (MTT / Renilla reporter expression) [5]: no cytotoxicity

Tm variation [1]: 2.9 ± 0.1 °C and 2.9 °C
SMILES: CC(C)(Oc1ccc(CCNC(=O)c2ccc(Cl)cc2)cc1)C(=O)O [Bezafibrate]
ANS fluorescence quenching / ANS probe displacement (qualitative) [2]: did not dislocate the ANS probe; also recorded: did not show a fluorescence quenching
